Measured values reported in PubChem BioAssay (NCI).
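Step 1: Grow cells in 96-well plates. Step 2: Expose to compound for 48 hours at 5 concentrations. Step 3: Interpolate endpoints linearly; if unreached, use highest concentration. Abbreviation: GI50, concentration required for 50% inhibition of growth. TGI is the concentration that stops growth completely.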

What was measured:
Assay in all cases: growth of human tumour cells (NCI), 48 h
786-0 renal = system: 786-0 renal
A498 renal = system: A498 renal
A549 NSCLC = system: A549 NSCLC
KM12 colon = system: KM12 colon
LOX IMVI melanoma = system: LOX IMVI melanoma
MOLT-4 leukemia = system: MOLT-4 leukemia
NCI/ADR-RES ovarian = system: NCI/ADR-RES ovarian
SF-268 CNS = system: SF-268 CNS
SF-539 CNS = system: SF-539 CNS
NCI-H522 lung = system: NCI-H522 lung

SMILES | GI50 (786-0 renal) [µM] | TGI (786-0 renal) [µM] | GI50 (A498 renal) [µM] | TGI (A498 renal) [µM] | GI50 (A549 NSCLC) [µM] | TGI (A549 NSCLC) [µM] | GI50 (KM12 colon) [µM] | TGI (KM12 colon) [µM] | GI50 (LOX IMVI melanoma) [µM] | TGI (LOX IMVI melanoma) [µM] | GI50 (MOLT-4 leukemia) [µM] | TGI (MOLT-4 leukemia) [µM] | GI50 (NCI/ADR-RES ovarian) [µM] | TGI (NCI/ADR-RES ovarian) [µM] | GI50 (SF-268 CNS) [µM] | TGI (SF-268 CNS) [µM] | GI50 (SF-539 CNS) [µM] | TGI (SF-539 CNS) [µM] | TGI (NCI-H522 lung) [µM] | GI50 (NCI-H522 lung) [µM]
O=C(/C=C/c1cccc([N+](=O)[O-])c1)c1ccc(O)c(CN2CCN(c3cc4c(cc3F)c(=O)c(C(=O)O)cn4C3CC3)CC2)c1 | 1.57 | 3 | 1.35 | 2.84 | 3.1 | 17.2 | 1.33 | 3.4 | 0.364 | 1.41 | 2.25 | 8.41 | 2.85 | 9.34 | 2.15 | 5.58 | 1.19 | 2.47 |  | 
NC(CC(=O)Nc1ccc(Cl)cc1)=Nc1ccccc1 |  | > 100 |  | > 100 |  | > 100 |  | > 100 |  | > 100 |  | > 100 |  |  |  | > 100 |  | > 100 | > 100 | 
CCCCN=C(NC#N)N(Cc1ccccc1)Cc1ccccc1 |  | > 100 |  | 63.7 |  | > 100 |  | > 100 |  | 29.7 |  | 48.5 |  |  |  | > 100 |  | 48.2 | 31.1 | 
O=c1cc(-c2ccccc2)[nH]c2c(Cl)cccc12 |  | > 100 |  | 91.6 |  | > 100 |  |  |  | > 100 |  | > 100 |  |  |  | > 100 |  | 41.7 |  | 
CC(C)(O)[C@@H]1CC[C@@]2(C)CCC[C@H](O)[C@H]2C1 |  | > 100 |  | > 100 |  | > 100 |  | > 100 |  | > 100 |  | > 100 |  |  |  | > 100 |  | > 100 | > 100 | 
Cc1ccc(C(=O)N2c3ccccc3N(C)n3cccc3C2CC(=O)O)cc1 (stereo not drawn) |  | > 100 |  | > 100 |  | > 100 |  | > 100 |  | > 100 |  | > 100 |  |  |  | > 100 |  | > 100 | > 100 | 
COc1cc(C=O)c(-c2cc3c(cc2C2(C)OCCS2)OCO3)c(OC)c1OC (stereo not drawn) |  | 23.6 |  | 23.9 |  | > 97 |  | 34 |  | 37.7 |  | > 239 |  |  |  | > 239 |  | 17.4 | 13 | 
CCCCCCCC(=O)OCC1OC(n2cc(F)c(=O)[nH]c2=O)C(NC(=O)OCc2ccccc2)C(O)C1O (stereo not drawn) |  | > 100 |  | > 100 |  | > 100 |  | > 100 |  | > 100 |  | > 100 |  |  |  | > 100 |  | > 100 | 92 | 
O=C1C2=C(CCCCC2)C2CCCCC12O (stereo not drawn) |  | > 100 |  |  |  | > 100 |  | > 100 |  | > 100 |  | > 100 |  |  |  | > 100 |  | > 100 | > 100 | 
CCOC(=O)c1cc2c(cn1)[nH]c1cccc(N)c12 |  | > 100 |  |  |  | > 100 |  | > 100 |  | > 100 |  | > 100 |  |  |  | > 100 |  | > 100 | > 100 | 
O=C1C2CC=CCC2C(=O)C12CCc1ccccc12 (stereo not drawn) |  | > 100 |  |  |  | > 100 |  |  |  | > 100 |  |  |  |  |  | > 100 |  |  |  | 
O=[P+](O)c1cc2ccccc2c2ccccc12 |  | > 100 |  |  |  | > 100 |  | > 100 |  | > 100 |  | > 100 |  |  |  | > 100 |  | > 100 | > 100 | 
CN(C(=O)C12C3(C(=O)C(C)(C)C)C4C5(C#N)C3C1(C(=O)C(C)(C)C)C5C42C(=O)C(C)(C)C)C(C)(C)C (stereo not drawn) |  | > 50 |  | > 50 |  | > 50 |  | > 50 |  |  |  | > 50 |  |  |  | > 50 |  | > 50 | > 50 | 
COc1ccc(-c2nnc(-c3c(C)n(C)n(-c4ccccc4)c3=O)o2)cc1 |  | > 100 |  | > 100 |  | > 100 |  | > 100 |  | > 100 |  | > 100 |  |  |  | > 100 |  | > 100 | > 100 | 
Cc1ccc(S(=O)(=O)C2c3nc4ccccc4cc3-c3nc4ccccc4nc32)cc1 (stereo not drawn) |  | > 100 |  | > 100 |  | > 100 |  | > 100 |  | > 100 |  | > 100 |  |  |  | > 100 |  | > 100 | > 100 | 
N#Cc1ccc(Nc2cnc3ccc(N)cc3n2)cc1 |  | > 100 |  |  |  | > 100 |  | > 100 |  | > 100 |  | > 100 |  |  |  | > 100 |  | > 100 | > 100 | 
O=C(O)c1ccc([S-])cc1.[Au+].c1ccc(CN2[CH-]N(Cc3ccccc3)C(c3ccccc3)=C2c2ccccc2)cc1 | 0.376 | 1.59 | 0.246 | 0.954 | 0.358 | 1.63 | 0.513 | 1.82 | 0.311 | 1.37 |  |  |  |  |  |  | 0.505 | 1.78 | 1.2 | 0.285
CC(=O)OCc1ccc(O)c(C=O)c1 |  | > 100 |  |  |  | > 100 |  | > 100 |  | > 100 |  | > 100 |  | > 100 |  | > 100 |  | > 100 | > 100 | 
CCCCCCCCC(O)C#CC(N)=O (stereo not drawn) |  | 25.3 |  | 31 |  | 36.2 |  |  |  | 24 |  | 66.1 |  |  |  |  |  | 26.1 |  | 
O=c1nc(NC(c2ccccc2)(c2ccccc2)c2ccccc2)ccn1CCO |  | > 100 |  | > 100 |  | > 100 |  | > 100 |  | > 100 |  | > 100 |  |  |  | > 100 |  | > 100 | > 100 | 
Cc1ccc(C(=O)N2CCN(C(=O)c3ccc(C)cc3)c3ccccc32)cc1 |  | 43.2 |  | > 74.1 |  | > 100 |  | > 100 |  | > 100 |  | > 46.4 |  |  |  | > 100 |  | 11.9 | 5.96 | 
CCC(=O)C(C)C(=O)C(=O)C(=O)OC (stereo not drawn) |  | > 100 |  | > 100 |  | > 100 |  | > 100 |  | > 100 |  | > 91.5 |  |  |  | > 100 |  | > 100 | > 100 | 
COc1ccc(C2=Nc3c/c(=C\c4c(O)[nH]c5ccc(Cl)cc45)ccc3=N2)cc1 | 1.94 | 3.81 | 1.33 | 7.78 |  |  | 1.22 | 2.65 |  |  | 1.99 | 6.08 |  |  | 2.09 | 5.47 | 1.78 | 3.87 |  | 
Nc1nc(NC2C=C(CO)C(O)C2O)c([N+](=O)[O-])c(=O)[nH]1 (stereo not drawn) |  | > 100 |  | > 100 |  | > 100 |  | > 100 |  | > 100 |  | > 100 |  |  |  | > 100 |  | > 100 | > 100 | 
